Reference: US20240246963A1, “BIFUNCTIONAL COMPOUNDS AND PHARMACEUTICAL USES THEREOF” (RISEN (SUZHOU) PHARMA TECH CO., LTD., priority 2022, published 2024)

Key:
Assay type in all cases: cell-based
NCI-H727 cells (G12V) = assay: Cell proliferation study (Cell Titer Glo, 72 hours), NCI-H727; conditions: Homo sapiens
Experimental: (§1) Aspc-1(Cobioer, CBP60546), GP2D(Cobioer, CBP60683), Mia paca2 (Cobioer, CBP60136), NCI-H358 (Cobioer, CBP60544), H727 (Cobioer, CBP60182), MKN-1 (Cobioer, CBP60486), and PSN1 (Cobioer, CBP61215) cells in exponential growth phase were seeded into a 96-well plate (Greiner, 655090) at density of 3E3/well. Cells were cultured overnight at 37° C. with 5% CO2. On the next day, cells were treated with compound at various concentrations for 72 hours in 37° C., 5% CO2 incubator (final DMSO concentration was 0.1%). After treatment, 100 μL Cell Tier Glo (Promega, G7573) were added to every well on the cell plate and incubated at room temperature (RT) for 10 minutes. Cell growth status was measured with Cell Tier Glo (Promega, G7573) following manufacturer's directions. Inhibition level was calculated according to the following formula: […]
(§2) where the “Maximum Signal” are signal of wells containing DMSO without compound; the “Minimum Signal” are signal of wells recorded at Day 0 prior to commencement of the experiment; and the “Test compound signal” are signal of wells containing compound at established concentrations.
(§3) The inhibition curve was obtained with GraphPad 7.0 software using four-parameter equation.

GP2D cells (G12D) = assay: Cell proliferation study (Cell Titer Glo, 72 hours), GP2D
Experimental: as §1, §2, §3

RAS G12D protein = molecular target: T1, RAS G12D protein (Homo sapiens, UniProt P01116, G12D); assay: Protein degradation study (western blot) in Aspc-1 cells; conditions: for percent protein degradation at 0.005 µM: 0.005 μM compound; for percent protein degradation at 0.05 µM: 0.05 μM compound; for Dmax: ASPC1, G12D in Aspc-1 cells; for DC50: half-maximum degradation concentration on G12D in Aspc-1 cells
T1 construct: host or cells: Aspc-1 (AsPC-1) cells
T1 sequence (P01116 1-188 isoform P01116-2 G12D): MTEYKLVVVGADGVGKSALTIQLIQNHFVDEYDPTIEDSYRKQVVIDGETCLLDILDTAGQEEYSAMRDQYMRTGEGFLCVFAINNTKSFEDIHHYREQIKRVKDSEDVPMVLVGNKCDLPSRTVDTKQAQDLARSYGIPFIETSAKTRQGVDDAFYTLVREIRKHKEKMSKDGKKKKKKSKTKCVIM
Experimental: Aspc-1 (Cobioer, CBP60546) cells in exponential growth phase were inoculated on a 6-well cell culture plate (Corning, 3516) at density of 1E6/well; and cells in the plate were cultured in a 37° C. incubator containing 5%-carbon dioxide. The next day, test compounds were dissolved in DMSO (Sigma, RNBF5902) for the preparation of a 10-mM concentration stock solution. The stock solution was diluted with complete medium (RPMI-1640 supplemented with 10% fetal bovine serum, 1% penicillin-streptomycin), yielding working solutions of various concentrations. The plate, after the addition of compounds, was placed in a 5% carbon dioxide incubator, and incubated at 37° C. for 24 hours (final DMSO concentration was 0.1%). The plate was then removed from the incubator, and the cells were washed twice with precooled PBS (Gibco, 14190250), followed by addition of 80 μL RIPA (CST, 9806S) lysis buffer (containing protease inhibitor (Invitrogen™, AM2696)) to each well. The adherent cells were scraped off with a cell scraper, and the cell lysate was transferred to a 1.5 mL centrifuge tube followed with a 30-minute incubation on ice. The lysate was then clarified with centrifugation at 12000 rpm for 10 min at 4° C. The supernatant was transferred into a new 1.5 mL centrifuge tube, and protein concentration was measured with BCA protein detection kit (Thermo Fisher, 23225). G12D protein level was assessed by western blot. A mixture of cell lysate (40 μL) and loading buffer (10 μL, 5×SDS (Beyotime, P0015L)) was denatured in a water-bath at 95° C. for 10 min. The denatured protein sample, at 30 μg/well, was loaded into a corresponding well of a 4-20% Bis-Tris gel (Kingsley, M00656). Protein samples were initially electrophoresed at 80 V for 30 minutes, followed by 120 V for 40 minutes, until the bromophenol blue strip ran to an appropriate position. After electrophoresis, iBlot2 (Life Technologies, IB21001) was used to transfer the separated samples onto PVDF film. The PVDF membrane was washed with double-distilled water and then blocked in TBST (Thermo Scientific, 28360) buffer containing 5% non-fat milk, for 2 hours. Blocked membrane was rinsed with tris-buffered saline tween-2 (Thermo Scientific, 28360, TBST) three times, 10 minutes each. Membrane was then incubated with 1:1000 diluted RAS Gi2D primary antibody (CST, cat #14429S) overnight at 4° C. Membrane was rinsed in a way described previously followed by 1 hour incubation of secondary antibody at room temperature. After washing the film for three times with TBST, ECL color developing solution was applied, and image was captured with Biorad Chemi Doc gel imager. The band gray value was quantified (Image Lab), and protein degradation level was calculated according to the following formulas:
Level of RAS G12D protein expression=(RAS G12D−compound/β-Actin)−compound/(RAS G12D−DMSO/β-Actin−DMSO)
Level of degradation (%)=(1−Rate of RAS G12D protein expression)×100
Symbols of −, +, ++, +++, ++++, +++++ indicate that the degradation level of Ras protein induced by test compounds was 10% or less, 10 to 30%, 30 to 60%, 60 to 70%, 70 to 75%, and greater than 75%, respectively. “NT” indicates not tested.
“NT” indicates not tested.

AsPc-1 cells (G12D) = assay: Cell proliferation study (Cell Titer Glo, 72 hours), AsPc-1; conditions: Homo sapiens, ASPC1
Experimental: as §1, §2, §3

NCI-H358 cells (G12C) = assay: Cell proliferation study (Cell Titer Glo, 72 hours), NCI-H358; conditions: Homo sapiens
Experimental: as §1, §2, §3

[1] = ASPC1, 24 h, Aspc-1 cells, 24 hours, read-out: Rate of protein degradation (%)

IC50 (NCI-H727 cells (G12V))	percent protein degradation at 0.005 µM (RAS G12D protein; [1])	percent protein degradation at 0.05 µM (RAS G12D protein; [1])	Dmax (RAS G12D protein)	DC50 (RAS G12D protein)	IC50 (AsPc-1 cells (G12D))	IC50 (NCI-H358 cells (G12C))	percent protein degradation at 0.001 µM (RAS G12D protein; ASPC1, 24 h, 1 nM compound, Aspc-1 cells, 24 hours, read-out: Rate of protein degradation (%))	Structure (SMILES)	IC50 (GP2D cells (G12D))
0.309 nM	60 to 70%	> 75%	78%	< 1 nM	2.32 nM	6.24 nM		CCc1c(F)ccc2cc(O)cc(-c3ncc4c(N5CCC[C@]6(CCO6)C5)nc(OCC5(CN6CCC7(CC6)CC(N6CCC(c8cc9c(cc8F)c(C8CCC(=O)NC8=O)nn9C)CC6)C7)CC5)nc4c3F)c12 (stereo partly shown) [Compound 205]	0.289 nM
2.09 nM	> 75%	> 75%	80%	< 1 nM	4.98 nM	9.92 nM		CCc1c(F)ccc2cc(O)cc(-c3ncc4c(N5CCC[C@]6(CCO6)C5)nc(OCC5(CN6CCC7(CC6)CC(N6CCC(c8ccc9c(C%10CCC(=O)NC%10=O)nn(C)c9c8)CC6)C7)CC5)nc4c3F)c12 (stereo partly shown) [Compound 201]	0.256 nM
4.4 nM	30 to 60%	70 to 75%	65%	11 to 50 nM	43.2 nM	17.9 nM		CCc1c(F)ccc2cc(O)cc(-c3ncc4c(N5CCC[C@]6(CCO6)C5)nc(OCC5(CN6CCC7(CC6)CC(N6CCC(c8ccc9c(=O)n(C%10CCC(=O)NC%10=O)ccc9c8)CC6)C7)CC5)nc4c3F)c12 (stereo partly shown) [Compound 234]	
	10 to 30%	10 to 30%						CCc1c(F)ccc2cc(O)cc(-c3ncc4c(N5CCC[C@]6(CCO6)C5)nc(OCC5(CN6CCC(CN7Cc8cc9c(cc8C7)C(=O)N(C7CCC(=O)NC7=O)C9=O)CC6)CC5)nc4c3F)c12 (stereo partly shown) [Compound 237]	
	10 to 30%	30 to 60%						CCc1c(F)ccc2cc(O)cc(-c3ncc4c(N5CCC[C@]6(CCO6)C5)nc(OCC5(CN6CCC7(CC6)CC(N6Cc8cc9c(cc8C6)C(=O)N(C6CCC(=O)NC6=O)C9=O)C7)CC5)nc4c3F)c12 (stereo partly shown) [Compound 231]	
	10 to 30%	30 to 60%						CCc1c(F)ccc2cc(O)cc(-c3ncc4c(N5CCC[C@]6(CCO6)C5)nc(OCC5(CN6CCC7(CCC(N8Cc9cc%10c(cc9C8)C(=O)N(C8CCC(=O)NC8=O)C%10=O)CC7)CC6)CC5)nc4c3F)c12 (stereo partly shown) [Compound 233]	

The next lines start with the molecule.

Structure (SMILES)	IC50 (NCI-H727 cells (G12V))	percent protein degradation at 0.005 µM (RAS G12D protein; [1])	percent protein degradation at 0.05 µM (RAS G12D protein; [1])	Dmax (RAS G12D protein)	DC50 (RAS G12D protein)	IC50 (AsPc-1 cells (G12D))	IC50 (NCI-H358 cells (G12C))	percent protein degradation at 0.001 µM (RAS G12D protein; ASPC1, 24 h, 1 nM compound, Aspc-1 cells, 24 hours, read-out: Rate of protein degradation (%))	IC50 (GP2D cells (G12D))
CCc1c(F)ccc2cc(O)cc(-c3ncc4c(N5CCC[C@@](C)(O)C5)nc(OCC5(CN6CCC7(CC6)CC(N6CCC(c8cc9c(cc8F)c(N8CCC(=O)NC8=O)nn9C)CC6)C7)CC5)nc4c3F)c12 [Compound 235]	0.8 nM	30 to 60%	> 75%	71%	1 to 10 nM	63.5 nM	10.3 nM		
CCc1c(F)ccc2cc(O)cc(-c3ncc4c(N5CCC[C@@](C)(O)C5)nc(OCC5(CN6CCC7(CC6)CC(N6CCC(c8ccc9c(c8)CN(C8CCC(=O)NC8=O)C9=O)CC6)C7)CC5)nc4c3F)c12 (stereo partly shown) [Compound 130]	4.45 nM	70 to 75%	30 to 60%	73%	< 1 nM	12.4 nM	64.8 nM	70 to 75%	0.219 nM
CCc1cccc2cc(O)cc(-c3ncc4c(N5CCC[C@]6(CCO6)C5)nc(OCC5(CN6CCC7(CC6)CC(N6CCC(c8cc9c(cc8F)c(N8CCC(=O)NC8=O)nn9C)CC6)C7)CC5)nc4c3F)c12 [Compound 238]		> 75%	30 to 60%	73%	11 to 50 nM				
C[C@@]1(O)CCCN(c2nc(OCC3(CN4CCC5(CC4)CC(N4CCC(c6ccc7c8c(cccc68)C(=O)N7C6CCC(=O)NC6=O)CC4)C5)CC3)nc3c(F)c(-c4cc(N)cc(Cl)c4C(F)(F)F)ncc23)C1 (stereo partly shown) [Compound 200]	45.8 nM	70 to 75%	> 75%			> 1000 nM	> 1000 nM		0.991 nM
CCc1c(F)ccc2cc(O)cc(-c3ncc4c(N5CCC[C@]6(CCO6)C5)nc(OCC5(CN6CCC7(CC(N8CCC(c9cc%10c(cc9F)c(N9CCC(=O)NC9=O)nn%10C)CC8)C7)C6)CC5)nc4c3F)c12 (stereo partly shown) [Compound 219]		30 to 60%	60 to 70%						
CCc1c(F)ccc2cc(O)cc(-c3ncc4c(N5CCC[C@]6(CCO6)C5)nc(OCC5(CN6CCC(c7ccc8c(C9CCC(=O)NC9=O)nn(C)c8c7)CC6)CC5)nc4c3F)c12 (stereo partly shown) [Compound 212]		≤ 10%	10 to 30%						
CCc1c(F)ccc2cc(O)cc(-c3ncc4c(N5CCC[C@]6(CCO6)C5)nc(OCC5(CN6CCC(CN7CCC(c8ccc9ccn(C%10CCC(=O)NC%10=O)c(=O)c9c8)CC7)CC6)CC5)nc4c3F)c12 (stereo partly shown) [Compound 244]		30 to 60%	30 to 60%						
CCc1c(F)ccc2cc(O)cc(-c3ncc4c(N5CCC[C@]6(CCO6)C5)nc(OCC5(CN6CC(C(=O)N7CCC(c8ccc9c(C%10CCC(=O)NC%10=O)nn(C)c9c8)CC7)C6)CC5)nc4c3F)c12 (stereo partly shown) [Compound 207]		30 to 60%	60 to 70%			198 nM			3.53 nM
C#Cc1c(F)ccc2cc(O)cc(-c3ncc4c(N5CCC=CCC5)nc(OCC5(CN6CCC7(CC6)CC(N6CCC(c8cc9c(cc8F)c(N8CCC(=O)NC8=O)nn9C)CC6)C7)CC5)nc4c3F)c12 [Compound 206]		10 to 30%	10 to 30%						
